Target: Phospholipase D2 (Homo sapiens) (UniProt O14939)
Assay: cellular phospholipase D2 inhibition IC50 – cell-based, dose response (AID 602147)
Conditions: cellular PLD2 activity assay, concentration response

Phospholipase D2 (Homo sapiens), sequence (O14939 whole entry, looked up): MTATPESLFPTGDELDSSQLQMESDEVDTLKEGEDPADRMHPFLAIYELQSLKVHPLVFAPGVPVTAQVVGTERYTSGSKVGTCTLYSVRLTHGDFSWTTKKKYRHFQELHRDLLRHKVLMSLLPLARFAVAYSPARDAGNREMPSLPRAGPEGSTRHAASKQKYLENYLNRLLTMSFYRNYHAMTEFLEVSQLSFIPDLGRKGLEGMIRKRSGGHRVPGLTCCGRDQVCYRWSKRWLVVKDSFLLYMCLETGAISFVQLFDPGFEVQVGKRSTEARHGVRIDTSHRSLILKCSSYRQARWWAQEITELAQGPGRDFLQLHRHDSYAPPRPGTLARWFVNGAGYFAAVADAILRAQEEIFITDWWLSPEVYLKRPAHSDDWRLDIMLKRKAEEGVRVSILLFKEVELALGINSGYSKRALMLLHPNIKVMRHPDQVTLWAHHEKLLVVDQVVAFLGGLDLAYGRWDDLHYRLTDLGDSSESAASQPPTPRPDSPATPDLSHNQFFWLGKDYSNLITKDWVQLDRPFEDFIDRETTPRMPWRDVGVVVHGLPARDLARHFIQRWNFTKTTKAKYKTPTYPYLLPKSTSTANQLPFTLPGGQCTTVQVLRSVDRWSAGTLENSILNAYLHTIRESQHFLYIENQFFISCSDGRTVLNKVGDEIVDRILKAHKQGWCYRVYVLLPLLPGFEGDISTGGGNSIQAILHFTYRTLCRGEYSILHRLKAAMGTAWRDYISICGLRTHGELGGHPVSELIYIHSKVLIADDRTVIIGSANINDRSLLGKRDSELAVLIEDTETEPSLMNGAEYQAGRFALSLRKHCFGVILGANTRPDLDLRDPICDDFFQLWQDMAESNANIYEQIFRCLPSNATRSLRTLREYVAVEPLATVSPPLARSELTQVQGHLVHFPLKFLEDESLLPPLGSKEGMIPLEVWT
Phospholipase D2 (Homo sapiens), sequence (O14939 whole entry, looked up): as above

Compound	IC50 [nM]
O=C(NCCN1CCC2(CC1)C(=O)NCN2c1ccc(Br)cc1)c1cc2cc(F)ccc2[nH]1	100
O=C(NCCN1CCC2(CC1)C(=O)NCN2c1ccc(F)cc1)c1ccc(F)cc1	610
O=C(NCCN1CCC2(CC1)C(=O)NCN2c1ccc(Br)cc1)c1ccc(F)cc1	8000
O=C(NCCN1CCC2(CC1)C(=O)NCN2c1ccc(F)c(F)c1)c1ccc(F)cc1	660
COc1cc(C(=O)NCCN2CCC3(CC2)C(=O)NCN3c2ccccc2)ccc1N	550
O=C(NCCN1CCC2(CC1)C(=O)NCN2c1ccc(Cl)cc1)c1cc2cc(F)ccc2[nH]1	50
O=C(NCCN1CCC2(CC1)C(=O)NCN2c1ccc(Cl)cc1)c1ccc(F)cc1	5670
O=C(NCCN1CCC2(CC1)C(=O)NCN2c1ccccc1)c1cc2ccccc2s1	30
O=C(C#Cc1ccccc1)NCCN1CCC2(CC1)C(=O)NCN2c1ccccc1	1640
O=C(NCCN1CCC2(CC1)C(=O)NCN2c1cccc(F)c1)c1cnc2ccccc2c1	63
O=C(NCCN1CCC2(CC1)C(=O)NCN2c1cccc(Cl)c1)c1ccc(F)cc1	70
O=C(NCCN1CCC2(CC1)C(=O)NCN2c1cccc(Cl)c1)c1cnc2ccccc2c1	165
O=C(NCCN1CCC2(CC1)C(=O)NCN2c1cccc(Cl)c1)c1cc2cc(F)ccc2[nH]1	73
O=C(NCCN1CCC2(CC1)C(=O)NCN2c1ccc(Cl)cc1)c1ccc2ccccc2c1	655
O=C(NCCN1CCC2(CC1)C(=O)NCN2c1ccc(F)cc1)c1cnc2ccccc2c1	40
O=C(NCCN1CCC2(CC1)C(=O)NCN2c1cccc(F)c1)c1cc2cc(F)ccc2[nH]1	25
O=C(NCCN1CCC2(CC1)C(=O)NCN2c1ccc(F)cc1)c1ccc2ccccc2c1	80
O=C(NCCN1CCC2(CC1)C(=O)NCN2c1ccc(Cl)cc1)c1cnc2ccccc2c1	200
O=C(NCCN1CCC2(CC1)C(=O)NCN2c1ccc(Br)cc1)c1ccc2ccccc2c1	350
C[C@@H](CN1CCC2(CC1)C(=O)NCN2c1cccc(F)c1)NC(=O)c1ccc2ccccc2c1	60
O=C(NCCN1CCC2(CC1)C(=O)NCN2c1cccc(F)c1)c1ccc(F)cc1	6690
O=C(NCCN1CCC2(CC1)C(=O)NCN2c1ccc(Br)cc1)c1cnc2ccccc2c1	360
O=C(NCCN1CCC2(CC1)C(=O)NCN2c1cccc(Cl)c1)c1ccc2ccccc2c1	290
